The values that follow come from US20260097056A1, “SYK ACTIVATORS AND INHIBITORS IN NEURODEGENERATIVE DISEASES” (University of Virginia Patent Foundation, priority 2022, published 2026).

For assay [1], the system named is bone marrow-derived macrophages (BMDMs). Description: In vitro Aβ phagocytosis assay (CypHer5E-tagged Aβ oligomers, flow cytometry). The assay is classed as cell-based, mouse. The following applies: SYK-deficient (Syk^fl/fl LysM^Cre) BMDMs; 10 μM Tideglusib 1 hour before 10 μM CypHer5E-tagged Aβ oligomers; read 24 hours later; vs vehicle. On the procedure: Monomerization of Aβ (1-42) (641-15, California peptide) was achieved using a previously published protocol (Stine et al., 2011), using hexafluoroisopropanol (HFIP) (52517, Sigma-Aldrich). 5 mM monomeric Aβ samples were incubated for 24 hours at 4° C. in F12 media to make a 200 μM stock of oligomeric Aβ. Samples were then incubated with CypHer5E-NHS ester (PA15401, […]) diluted in 0.1 M sodium bicarbonate for 30 minutes covered and at room temperature. Following incubation, Biospin columns (7326227, Bio-Rad) were used to […] unbound dye. CypHer5E-tagged Aβ oligomers were stored at 4° C. prior to BMDM treatment. Bone marrow-derived macrophages (BMDMs) were isolated from the hindlimbs of WT and Syk^fl/fl LysM^Cre mice. Marrow-containing bones were sprayed with 70% ethanol before being placed in IMDM (Thermo Fisher, 12440-053) containing penicillin/streptomycin (P/S) (Thermo Fisher, 15140163). A 25-gauge needle was used to flush marrow from the bones using 20 ml of IMDM containing P/S. An 18-gauge needle was then used to triturate flushed bone marrow 5 times to make a single-cell suspension. Samples were spun down at 1500 rpm for 5 minutes at 4° C. […] 24 hours post Aβ treatment, BMDMs were then collected, and flow cytometry was used to assess CypHer5E fluorescence. […]
On the technique in general: In flow cytometry, cells or beads pass a laser one at a time.

The next assay relates to 5xFAD mice. Description: Intrahippocampal injection, Aβ load in hippocampus by immunofluorescence. The assay is classed as in vivo. Conditions: 2 μg pustulan intrahippocampal vs vehicle-injected hemisphere of the same mouse, 7 days post injection. On the procedure: Floating brains sectioned stored in PBS+0.05% sodium azide were blocked with 2% donkey serum, 1% bovine serum albumin, 0.1% triton, 0.05% tween in PBS for 1 hour at room temperature before applying the primary antibody master mix diluted in this block overnight at 4° C. Samples were stained with anti-AB (D54D2, Cell Signaling, 1:300; or 6e10, BioLegend, 1:1000) to label plaques. To study microglial morphology and numbers, sections were stained with Iba1 (ab5076, Abcam, 1:300). To further characterize microglia, we labeled with Ki67-EF660 (SoIA15, Thermo Fisher, 1:100), anti-Clec7a (R1-8g7, Invivogen, 1:30), Tmem119 (ab209064, Abcam, 1:300), and anti-CD68 (FA-11, BioRad, 1:1000). […] Quantification of images were performed using Fiji software or Imaris software (9.5.1).
5xFAD and 5xFAD Syk^ΔMG mice were anesthetized before receiving a bilateral hippocampal injection of 2 μl of vehicle or 2 μg pustulan into the right and left hemisphere of the hippocampus (at +2 mm lateral, −2 mm posterior, and −2 mm ventral relative to the intersection of the coronal and sagittal suture (bregma) at a rate of 200 nl/min) using a stereotaxic frame (51730U, Stoelting) and nanoliter injector (NL2010MC2T, World Precision Instruments). […] Images were analyzed using Fiji software and Imaris software (9.5.1).

With `O=c1sn(-c2cccc3ccccc23)c(=O)n1Cc1ccccc1` [Tideglusib], in assay [1], the “Aβ phagocytosis (CypHer5E fluorescence, percent CypHer5E+ CD11b^hi F4/80^hi cells)” value is reported as “significantly increased Aβ phagocytosis”.
For pustulan, the “Aβ load in injected hippocampal hemisphere (D54D2 immunofluorescence)” value in the assay on 5xFAD mice is “decreased Aβ load”.
